# Where two headings read alike, the source gives them in different places.
# Tests used:
# [1] = system: P. aeruginosa DSMZ 1117; type: cell-based, Pseudomonas aeruginosa; settings: for Reduction in adhered bacteria [%]: P. aeruginosa, polyester; for Reduction in adhered bacteria [%] P. aeruginosa: polyester fabric, application concentration 0.1 wt %, commercial product applied directly by padding, relative to uncoated fabric
# Description: Circular fabric samples with a diameter of 0.6 cm were punched from coated and uncoated cotton and polyester fabrics. The fabric samples were fixed to a microtiter plate. The fabric samples were washed with acetone and sterilized with UV light for 60 minutes.
# The strains were coated fresh from glycerol bacterial cultures onto tryptic soy agar (TSA). Incubation took place overnight at 33° C. The nutrient medium prepared was a tryptic soy broth (TSB), with 30% of the amount recommended by the manufacturer, supplemented with 0.25% of glucose. […] The nutrient medium was inoculated with the bacterial cultures and after inoculation was cultivated overnight at 37° C. and 160 rpm.
# The resulting overnight cultures were centrifuged at 8500 g for 15 minutes and washed with 50 ml of isotonic saline solution (0.9 wt %). Bacterial suspensions in isotonic saline solutions were prepared. The optical density of the various bacterial suspensions was determined at 595 nm and adjusted to a level of about 1.2.
# 50 μl of the final microorganism suspension in isotonic saline solution (0.9 wt %) prepared as described under 2.2 were added to the coated and uncoated fabric samples fixed on the microtiter plate (see 2.1). The microtiter plates were closed and sealed off with Parafilm. The microtiter plates were placed in an antievaporation box and incubated at 33° C. for 2 h and at 40 rpm. The expected colony-forming unit count (CFU) of the inoculum at the start was 10^6-10^7 CFU/ml.
# After the biofilm had formed, the planctonic cells were removed and used as a sample for determining the optical density at 595 nm. For this purpose, the samples were made up to a volume of 150 μl, and 100 μl were withdrawn for the optical density determination in a photometer. […] Through the determination of the planctonic cells after the formation of biofilm, the amount of bacteria available for adhesion was monitored.
# The fabric samples and the resulting biofilm were washed three times with 200 to 300 μl of isotonic saline solution.
# The fabric samples obtained under 2.4 (after formation of biofilm) were placed together with 100 μl of isotonic saline solution into wells of a 96-well microtiter plate.
# Investigations into the removal of the adhered microorganisms from the fabric surfaces were carried out with vortexing, ultrasound, with enzymatic treatment, or with combinations thereof. Treatment in the vortex amounted to 5 minutes and was performed horizontally. The ultrasound treatment was carried out in an ultrasound bath for 5 minutes. For the enzymatic removal, the fabric samples were treated with enzymes, such as trypsin or a mixture of different enzymes, for example, during incubation at 37° C. for 1 hour.
# Following removal of the adhered bacteria, the fabric samples were removed from the microtiter plates.
# The number of removed bacteria in the resulting suspension was determined by staining with Syto9 and fluorescence measurement (fluorescence filter with excitation at 485/20 nm and emission at 528/20 nm) or by staining with BacTiterGlo and bioluminescence measurement. Furthermore, it is possible to determine the number of adhered and removed microorganisms by means of protein assay (e.g., BCA assay, Bradford Assay) or optical density proliferation assay.
# The relative variables (e.g., fluorescence units (RFU)) concerning the coated and uncoated fabrics were compared, allowing the reduction in adhered bacteria in % to be determined in accordance with the following formula: Reduction in adhered bacteria[%]=[(RFUuc−RFUuc)/RFUuc]*100 where • RFUuc=relative fluorescence units of the removed bacteria of the uncoated substrate • RFUc=relative fluorescence units of the removed bacteria of the coated substrate
# The commercial products described in example 1 were applied directly by a padding method to polyester fabric samples.
# Bacterial adhesion to the polyester fabric samples was investigated using the microtiter plate Syto9 assay, as described in example 2.
# [2] = system: Staphylococcus aureus; type: cell-based; settings: for Reduction in cell count relative to control [%] S. aureus: coated glass slide vs uncoated glass control K; for Cell count [1/cm^2] S. aureus: glass slide coated from 0.1% strength solution, bacterial suspension 10^9 microbes/ml, 30 measuring windows
# Source text: Silane derivatives S1, S3, S4 and S5 as identified above in example 1 were used to produce coatings on glass slides. As a control (comparison sample) K, an uncoated glass slide cleaned with isopropanol was used.
# For the coating of the slides they were immersed for 60 seconds into a 0.1% strength solution of the corresponding silane derivative in ethanol/water as solvent with a water fraction of 5%. The solutions had been adjusted with acetic acid beforehand to a pH in the range from 4 to 5. The wetted slides were subsequently dried at 160° C. for 1 hour.
# The slides wetted with the bacterial suspension were analyzed by microscope to determine the adhering bacteria. […] The fluorescent dye used was DAPI (4′,6-diamidine-2-phenylindole), which binds to DNA and fluoresces under UV excitation. In order to determine the adhesion characteristics, the cell counts per cm^2 were ascertained in 30 measuring windows, and the adhesion pattern was evaluated. Cell attachment was evaluated on an Olympus IX 51 using the Labflow AnalySIS image processing program.
# Bacterial suspensions produced and used were suspensions of test cultures of the strains Staphylococcus aureus and Escherichia coli. The concentration of the bacterial suspension was 10^9 microbes/ml.
# [3] = coating concentration 0.001 %, wash pretreatment (A) unwashed
# [4] = coating concentration 0.001 %, wash pretreatment (B) washed twice at 30° C. only with water
# [5] = coating concentration 0.001 %, wash pretreatment (C) washed once at 30° C. EN ISO 6330 method 8A with ECE B detergent
# [6] = coating concentration 0.01 %, wash pretreatment (A) unwashed
# [7] = coating concentration 0.01 %, wash pretreatment (B) washed twice at 30° C. only with water
# [8] = coating concentration 0.01 %, wash pretreatment (C) washed once at 30° C. EN ISO 6330 method 8A with ECE B detergent
# [9] = coating concentration 0.1 %, wash pretreatment (A) unwashed
# [10] = coating concentration 0.1 %, wash pretreatment (B) washed twice at 30° C. only with water
# [11] = coating concentration 0.1 %, wash pretreatment (C) washed once at 30° C. EN ISO 6330 method 8A with ECE B detergent
Compound,"Reduction in adhered bacteria [%] [1, 3]","Reduction in adhered bacteria [%] [1, 4]","Reduction in adhered bacteria [%] [1, 5]","Reduction in adhered bacteria [%] [1, 6]","Reduction in adhered bacteria [%] [1, 7]","Reduction in adhered bacteria [%] [1, 8]","Reduction in adhered bacteria [%] [1, 9]","Reduction in adhered bacteria [%] [1, 10]","Reduction in adhered bacteria [%] [1, 11]",Reduction in adhered bacteria [%] P. aeruginosa [1],Reduction in cell count relative to control [%] S. aureus [2],Cell count [1/cm^2] S. aureus [2],"adhesion of S. aureus to coated glass, assessment in words ([2]; coated glass slides)"
"CO[Si](CCCN(CCN(CC(=O)[O-])CC(=O)[O-])CC(=O)[O-])(OC)OC.[Na+].[Na+].[Na+] [S5, N-(trimethoxysilylpropyl)ethylenediaminetriacetyl acid, trisodium salt]",81%,42%,77%,78%,54%,73%,68%,69%,67%,17%,52%,219 000 1/cm^2,
"N-(triethoxysilylpropyl)-O-polyethylene oxide-urethane, (4-6 EO units) [S3]",63%,46%,69%,65%,37%,71%,85%,36%,76%,48%,83%,77 000 1/cm^2,Very good results
